Data set [1] deals with T. cruzi-infected VERO cells. The data set is described as follows: Treatment of T. cruzi-infected VERO cells, confocal microscopy. Type of data set: cell-based, Trypanosoma cruzi. The following applies: 5 μM, 5 days. The protocol: 2×10^4 VERO cells were plated in individual confocal dishes and allowed to adhere for 16 hours at 37° C. […] The T. cruzi-infected dishes were incubated with ˜2×10^6 T. cruzi/mL for 24 hours at 37° C. to allow for internalization of parasites. T. cruzi parasites expressed tdTomato, which allowed for visualization of parasites within cells. After the 24-hour T. cruzi incubation period, extracellular parasites were removed from culture dishes. The cells were washed 3 times with cell culture media (10% fetal bovine serum; 1% penicillin/streptomycin). Designated plates were then incubated with 5 μM Compound 2 or 5 μM Compound 7 for 5 days at 37° C. Cells were then fixed in 2% paraformaldehyde and tdTomato fluorescence in cells was assessed via confocal microscopy.

The test system of data set [2] is T. cruzi-infected ARPE cells. The data set is described as follows: Treatment of T. cruzi-infected ARPE cells, imaging. The format is cell-based, Trypanosoma cruzi. The method, then:
Four confocal dishes were prepared with 10,000 ARPE cells, which were adhered overnight at 37° C. The four dishes were ARPE control cells, non-infected but 5 μM Compound 2-treated cells, non-treated but infected cells, and infected cells treated with 5 μM Compound 2. For the infected dishes, ARPE media was removed and replaced with 2 mL of infectious amastigotes and trypomastigotes from the ARPE passaged plate. The dishes were then incubated for 2 hours at 37° C. The treated dishes were incubated with 5 μM Compound 2 for 5 days at 37° C., while untreated dishes were incubated in fresh media without Compound 2 for 5 days at 37° C. After the 5-day period, cells were washed 3 times in ARPE media and fixed with 1 mL 4% paraformaldehyde. Cells were visualized using an EVOS cell imaging system. Amastigotes appeared as small, dense, and mostly birefringent in images.
The experiment above was repeated using 1 μM Compound 2.
Four confocal dishes with 10,000 ARPE cells were prepared and adhered overnight at 37° C. The four dishes were: 1) ARPE control cells; 2) non-infected cells treated with 1 μM Compound 2; 3) untreated infected cells; and 4) T. cruzi-infected cells treated with 1 μM Compound 2. For the infected dishes, ARPE media was removed and replaced with 2 mL of infectious amastigotes and trypomastigotes expressing tdTomato (from ARPE passaged plate). The dishes were then incubated overnight for 7 days at 37° C. The untreated dishes were incubated in fresh media without Compound 2 for 7 days at 37° C. After the 7-day incubation period, cells were washed 3 times in ARPE media and fixed with 1 mL 4% paraformaldehyde. tdTomato fluorescence, which is indicative of viable T. cruzi, was then observed via fluorescence microscopy.
ARPE cells were plated in confocal dishes (20,000 cells per dish) and incubated overnight at 37° C. Cells were infected with T. cruzi by incubating cells with T. cruzi amastigotes and trypomastigotes expressing tdTomato (˜2×10^5 cells in total) for 24 hours at 37° C. Uninfected cells served as controls. Following the T. cruzi incubation period, extracellular parasites were removed, and the medium was replaced with DMEM/F12 culture media with or without 1 μM Compound 2. The cells were incubated further for 24 hours at 37° C. Cells were then treated two more times with fresh DMEM/F12 culture media with or without 1 μM Compound 2 and incubated for 24 hours at 37° C. Following fixation of cells in 4% paraformaldehyde, plates were imaged for tdTomato fluorescence, which is indicative of viable T. cruzi, such that the effects of repeated Compound 2 treatment could be compared to a single treatment with Compound 2.
ARPE cells were plated in confocal dishes (20,000 cells per dish) and incubated overnight at 37° C. Cells were infected with T. cruzi by incubating cells with T. cruzi amastigotes and trypomastigotes expressing tdTomato (˜2×10^5 cells in total) for 24 hours at 37° C. before washing dishes three times with DMEM/F12 culture media. Uninfected plates served as controls. The dishes were then treated with 2 μM Compound 2 or left untreated as a control and incubated further for 5 days at 37° C. The treated dish received a single treatment of Compound 2 on day 1. Dishes were washed twice with DMEM/F12 media and fixed in 4% paraformaldehyde before being imaged using confocal microscopy. […] The other Compound 2 dishes that were not incubated with T. cruzi a second time were used as controls. Following fixation of cells in 4% paraformaldehyde, tdTomato fluorescence of the cells was assessed using confocal microscopy.
ARPE cells were plated in confocal dishes (20,000 cells per dish) and incubated overnight at 37° C. Dishes were incubated with T. cruzi amastigotes and trypomastigotes expressing tdTomato (˜2×10^5 cells) for 48 hours at 37° C. Untreated cells served as controls. Cells were then washed 3 times with cell medium, treated with 5 μM Compound 2 or left untreated as a control and incubated further for 2 days at 37° C. […]

For data set [3], the system named is T. cruzi amastigotes and trypomastigotes. The data set is described as follows: Viability of tdTomato T. cruzi amastigotes and trypomastigotes, fluorescence. Type of data set: cell-based, Trypanosoma cruzi. The note with it: 25 μM, 48 hours at 37° C. The method, then:
The viability of a mixture of T. cruzi amastigotes and trypomastigotes after exposure to 25 μM of the compounds of the disclosure was determined. 2×10^5 parasites/100 μL were plated in 96-well plates. Parasites expressing tdTomato were used to assess parasite viability using fluorescence measurements. Parasites were incubated with 25 μM of the compounds of the disclosure for 48 hours at 37° C. After the incubation period, the viability of amastigotes and trypomastigotes was assessed by measuring the fluorescence intensity at 510 nm-590 nm using a Tecan plate reader, where the presence of fluorescence indicated viable amastigotes/trypomastigotes.

The next data set relates to T. cruzi epimastigotes. The data set is described as follows: T. cruzi epimastigote toxicity, visually assessed. The following applies: 48 hours at 30° C. Type of data set: cell-based, Trypanosoma cruzi. The protocol:
A 1:20 working dilution of T. cruzi epimastigotes was prepared in LIT1029 medium from a saturated (˜4×10^6 cells/mL) culture. 100 μL of the 1:20 working dilution was plated, and the epimastigotes were incubated with a compound of the disclosure at varying concentrations for 48 hours at 30° C. Following T. cruzi epimastigote treatment with a compound of the disclosure, the toxicity of compounds towards T. cruzi epimastigotes was visually assessed.

The test system of the next data set is L. major-infected MDMs. The data set is described as follows: L. major-infected human MDMs, quantitative cell bioimaging. The format is cell-based, Leishmania major. The note with it: 2 μM or 20 μM. The protocol: Human MDMs were cultured on glass slides and incubated with metacyclic L. major for 24 hours to allow for internalization of parasites. After the 24-hour L. major incubation period, extracellular parasites were removed from the culture. 24 hours after the removal of extracellular parasites, infected cells were treated with vehicle control (DMSO), 5 μM MTF, 1 μM Compound 2, 5 μM Compound 2, 10 μM Compound 2, 2 μM Compound 7, or 20 μM Compound 7. Following treatment, the cells were fixed with 2% paraformaldehyde and subsequently stained with the DNA stain Hoechst 33342. The stained cover slips were transferred onto glass slides, and quantitative cell bioimaging was utilized to determine the number of amastigotes per 500 cells using a CellInsight CX5 High Content screening platform.

A further data set relates to PBMC cells. Description: MTT toxicity assay on PBMC / monocyte-derived macrophages. The following applies: 5 (μM) MTF, 48 hours. The format is cell-based, Human. The method, then: Human peripheral blood mononuclear cells (PBMC) were plated onto polylysine-coated glass slides in 24-well plates and allowed to differentiate towards monocyte-derived macrophages (MDMs). Non-adherent cells were removed 48-hours post plating. Adherent monocytes were left to further differentiate for another 48 hours to MDMs. Following the completion of the differentiation period, MDMs were treated with vehicle control (DMSO), […], or 10 μM of Compound 1, Compound 3, Compound 4, Compound 6, Compound 7, Compound 8, Compound 9, Compound 10, or Compound 11 for 48 hours.
(Tetrazolium dyes change colour on reduction, which living cells bring about.)

On to `Cn1c(-c2ccc3ccccc3c2)c(C(C(=O)NO)c2ccccc2)c2ccccc21` (stereo not drawn) [Compound 7, N-hydroxy-2-(1-methyl-2-(naphthalen-2-yl)-1H-indol-3-yl)-2-phenylacetamide], for which, in data set [1], the “T. cruzi infection in VERO cells” value is “eradication of T. cruzi infection”. Moreover, in data set [2] (1 μM, 3 days), the parasitic burden entry is “decreased parasitic burden” and the “protection from a recurring infection” value is listed as “not protected from a recurring infection”. Further, in data set [2] (2 μM, two days), the “T. cruzi in ARPE cells (CherryTomato fluorescence)” value is “eradicated T. cruzi”. Further, in data set [2] (2.5 μM, 3 days), the “T. cruzi infections in ARPE cells” value is “minimal”. Also, in data set [2] (5 μM, 3 days), the “T. cruzi in ARPE cells” value was “eradicated”. In data set [2] (single dose of 2 μM, 2 days), the “intracellular T. cruzi and re-infection” value is “killed intracellular T. cruzi and protected the cells from re-infection”. The “toxicity to T. cruzi amastigotes and trypomastigotes” value in data set [3] is reported as “most toxic”. The “Concentration at which T. cruzi epimastigote death is greater than or equal to ~99%” value in the data set on T. cruzi epimastigotes was at least 100 µM. Besides, the killing at 100 µM in the data set with T. cruzi epimastigotes (Trypanosoma cruzi, epimastigotes, 100 μM, read-out: T. cruzi death @ 100 μM) was determined as 100%. Besides, the “number of parasites per cell” value in the data set with L. major-infected MDMs is “decreased the number of parasites per cell”.

On to `CCCCCCCCCCCCCCCCOP(=O)([O-])OCC[N+](C)(C)C` [MTF, miltefosine], for which the “toxicity to PBMC cells (MTT)” value with PBMC cells is given as “not toxic”.

(Values after patent US12029728B2, “Small molecules with anti-protozoan activity” (New Mexico Tech University Research Park Corporation, priority 2018, dated 2024).)
